# According to patent publication US10900063B2, “Measurement of Lp-PLA2 activity” (ASAHI KASEI PHARMA CORPORATION, priority 2016, dated 2021):
# How the values were obtained:
# [1] = target: T1, Lp-PLA2 (Homo sapiens, UniProt Q13093); test: Lp-PLA2 activity measurement in serum/plasma with reagents of the invention (PAF substrate, lyso-PAF-PLD, choline oxidase, peroxidase colorimetry); assay type: biochemical; settings: for Relative activity: PAF(C16) = 100; for values for absorbance change (sensitivity) compared with DAOS: Trinder reagent with 4-AA
# T1 construct: Individual serum No. 16, individual serum No. 78; from tissue; host or cells: serum and plasma (individual sera, pooled sera, heparin and citrated pooled plasma)
# T1 sequence (Q13093 22-441): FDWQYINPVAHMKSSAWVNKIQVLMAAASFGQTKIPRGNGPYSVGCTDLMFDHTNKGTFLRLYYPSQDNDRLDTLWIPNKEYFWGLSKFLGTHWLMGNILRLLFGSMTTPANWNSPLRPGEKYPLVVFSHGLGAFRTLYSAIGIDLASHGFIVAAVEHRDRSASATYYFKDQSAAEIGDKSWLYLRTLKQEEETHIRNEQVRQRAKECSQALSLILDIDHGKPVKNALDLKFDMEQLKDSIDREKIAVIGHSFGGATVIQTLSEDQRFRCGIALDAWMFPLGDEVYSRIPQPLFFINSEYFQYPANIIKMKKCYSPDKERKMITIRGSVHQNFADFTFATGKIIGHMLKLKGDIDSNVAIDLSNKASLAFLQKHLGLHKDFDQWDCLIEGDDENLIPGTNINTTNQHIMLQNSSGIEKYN
# Method: Unless otherwise specified, in these examples the Method 1 described under 1) below is used for calculating Lp-PLA2 activity values. In these examples, (nmol/min/mL) is sometimes expressed as (U/L).
# This is calculated by the following formula based on the absorbance change per minute (ΔmAbs/min) as calculated from absorbance at the measuring points and the millimolar extinction coefficient (ε=36) of TODB at 546 nm.
# (§1) 4 μL of the sample was mixed with 160 μL of the R1 reagent, and incubated for 5 minutes at 37° C. (measuring points 1 to 16), after which 40 μL of the R2 reagent was added to initiate a reaction (measuring point 17). The absorbance of water (blank) at the same measuring points was subtracted from the absorbance of the sample about 3.6 to 4.5 minutes after the reaction was initiated by addition of the R2 reagent (measuring points 30 to 33) to calculate the absorbance change per minute (ΔmAbs/min), and the Lp-PLA2 activity value (nmol/min/mL) was calculated according to the previous formula.
# […] was mixed with 150 μL of the R1 reagent, and incubated for 5 minutes at 37° C. (measuring points 1 to 15), after which 100 μL of the R2 reagent was added to initiate a reaction (measuring point 16). The absorbance of water (blank) at the same measuring points was subtracted from the absorbance of the sample about 2 to 3 minutes after the reaction was initiated by addition of the R2 reagent (measuring points 23 to 26) to calculate the absorbance change per minute (ΔmAbs/min), and the Lp-PLA2 activity value (nmol/min/mL) was calculated according to the previous formula. The values for absorbance change per minute (sensitivity) (ΔmAbs/min) and the Lp-PLA2 activity values (nmol/min/mL) at each pH are shown in Tables 1 and 2.
# (§2) 5 μL of sample was mixed with 150 μL of the R1 reagent, and incubated for 5 minutes at 37° C. (measuring points 1 to 15), after which 100 μL of the R2 reagent was added to initiate a reaction (measuring point 16). The absorbance of water (blank) at the same measuring points was subtracted from the absorbance of the sample about 3.5 to 4.5 minutes after the reaction was initiated by addition of the R2 reagent (measuring points 27 to 30) to calculate the absorbance change per minute (ΔmAbs/min), and the Lp-PLA2 activity value (nmol/min/mL) was calculated according to the previous formula. The values for absorbance change per minute (sensitivity) (ΔmAbs/min) and Lp-PLA2 activity (nmol/min/mL) and the relative activity for each substrate given 100 as the Lp-PLA2 activity value for PAF(C16) are shown in Tables 19 to 24.
# Each sample was mixed with 160 μL of the R1 reagent, and incubated for 5 minutes at 37° C., (measuring points 1 to 15), after which 40 μL of the R2 reagent was added to initiate the reaction (measuring point 16). The absorbance of water (blank) at the same measuring points was subtracted from the absorbance of the sample about 3.5 to 4.5 minutes after the reaction was initiated by addition of the R2 reagent (measuring points 27 to 30) to calculate the absorbance change per minute (ΔmAbs/min), and the Lp-PLA2 activity value (nmol/min/mL) was calculated according to the previous formula. […]
# as §1, with “(measuring” for “4 μL of the sample was mixed with 160 μL of the R1 reagent, and incubated for 5 minutes at 37° C. (measuring”, “100” for “40”, “3.5” for “3.6”, “29” for “30”, “32)” for “33)”
# [2] = target: T2, rLp-PLA2 (Homo sapiens, UniProt Q13093, I42M); test: Lp-PLA2 activity measurement with reagents of the invention, recombinant Lp-PLA2 as sample; assay type: biochemical; settings: Example 9, sample rLp-PLA2 (0.017 mg/mL)
# T2 construct: histidine tag (from vector pET-19b) (N); made in house; host or cells: E. coli BL21(DE3), plasmid Lp-PLA2/pET-19b
# T2 sequence (Q13093 42-441 I42M): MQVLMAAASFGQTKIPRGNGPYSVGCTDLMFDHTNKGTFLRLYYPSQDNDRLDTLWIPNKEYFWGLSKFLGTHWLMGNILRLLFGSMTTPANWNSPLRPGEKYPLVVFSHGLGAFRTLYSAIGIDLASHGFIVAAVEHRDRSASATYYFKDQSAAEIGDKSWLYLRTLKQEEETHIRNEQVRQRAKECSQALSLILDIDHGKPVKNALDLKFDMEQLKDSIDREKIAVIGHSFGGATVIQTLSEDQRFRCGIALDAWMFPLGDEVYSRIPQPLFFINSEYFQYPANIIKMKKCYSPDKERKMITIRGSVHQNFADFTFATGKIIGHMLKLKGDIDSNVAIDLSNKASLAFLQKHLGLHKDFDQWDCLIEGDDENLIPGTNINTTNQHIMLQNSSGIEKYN
# Method: The recombinant Lp-PLA2 (rLp-PLA2) used in these examples was prepared in accordance with Reference Examples 4 to 6 based on the information disclosed in J. Biol. Chem., Oct. 27, 1995, No. 43, Vol. 270, pp. 25481-25487.
# A gene optimized for E. coli (matched to E. coli codon usage) was synthesized (GenScript (NJ, USA)) based on the sequence data for a human Lp-PLA2 gene. Using the synthesized DNA as a template, a roughly 1200 bp PCR product was obtained by PCR using KOD FX (Toyobo Co., Ltd.) using as the sense primer the nucleotide sequence of SEQ ID NO: 5 in which the 42nd isoleucine was changed to the sequence of the initial methionine, with the nucleotide sequence of SEQ ID NO: 6 as the antisense primer. The resulting PCR product was digested with NdeI (Takara Bio Inc.) and BamHI (Takara Bio Inc.), and inserted into the NdeI-BamHI site of the expression vector pET-19b (Novagen) to obtain an Lp-PLA2/pET-19b expression plasmid. This expression plasmid was transformed into One shot BL21(DE3) Chemically Competent E. coli, to obtain a transformant called Lp-PLA2/pET-19b/BL21(DE3) comprising a recombinant vector containing a polynucleotide consisting of a nucleotide sequence encoding Lp-PLA2 with a histidine tag from the vector added at the N-terminus.
# as §2
# [3] = Example 9, 10 mM substrate in R2, sample Citrated pooled plasma
# [4] = Example 9, 10 mM substrate in R2, sample Heparin pooled plasma
# [5] = Example 9, 10 mM substrate in R2, sample Individual serum 16
# [6] = Example 9, 10 mM substrate in R2, sample Pooled serum C
# [7] = Example 9, 10 mM substrate in R2, sample Pooled serum J042
# [8] = Example 10, 0.03% Trinder reagent in R1 with 4-AA, sample Individual serum No16
# [9] = Example 10, 0.03% Trinder reagent in R1 with 4-AA, sample Individual serum No78
# [10] = Example 10, 0.03% Trinder reagent in R1 with 4-AA, sample Pooled serum J042
# [11] = Example 4, 50 mM buffer pH 7.5 in R1 and R2, sample Individual serum 16
# [12] = Example 4, 50 mM buffer pH 7.5 in R1 and R2, sample Individual serum 78
compound,measurement,setting,value
"CCCCCCCCCCCCCCCC(=O)OC[C@H](COP(=O)([O-])OCC[N+](C)(C)C)OC(C)=O [1-Palmitoyl-2-acetyl-sn-glycero-PC, 1-Palmitoyl-2-acetyl-sn-glycero-3-phosphocholine]",Lp-PLA2 activity value,[1]; [3],34.4 nmol/min/mL
same,absorbance change per minute (sensitivity),[1]; [3],24.3 ΔmAbs/min
same,Lp-PLA2 activity value,[1]; [4],44.1 nmol/min/mL
same,absorbance change per minute (sensitivity),[1]; [4],31.1 ΔmAbs/min
same,Lp-PLA2 activity value,[1]; [5],82.3 nmol/min/mL
same,absorbance change per minute (sensitivity),[1]; [5],58.1 ΔmAbs/min
same,Lp-PLA2 activity value,[1]; [6],44.9 nmol/min/mL
same,absorbance change per minute (sensitivity),[1]; [6],31.7 ΔmAbs/min
same,Lp-PLA2 activity value,[1]; [7],45.2 nmol/min/mL
same,absorbance change per minute (sensitivity),[1]; [7],31.9 ΔmAbs/min
same,Relative activity,"[1]; Example 9, sample Citrated pooled plasma",103%
same,Relative activity,"[1]; Example 9, sample Heparin pooled plasma",99%
same,Relative activity,"[1]; Example 9, sample Individual serum 16",87%
same,Relative activity,"[1]; Example 9, sample Pooled serum C",110%
same,Relative activity,"[1]; Example 9, sample Pooled serum J042",111%
same,Lp-PLA2 activity value,[2]; 10 mM substrate in R2,98.7 nmol/min/mL
same,absorbance change per minute (sensitivity),[2]; 10 mM substrate in R2,69.7 ΔmAbs/min
same,Relative activity,[2]; PAF(C16) = 100,75%
"CCN(CC(O)CS(=O)(=O)[O-])c1cc(OC)cc(OC)c1.[Na+] (centres unmarked) [DAOS, N-ethyl-N-(2-hydroxy-3-sulfopropyl)-3,5-dimethoxyaniline sodium salt]",Lp-PLA2 activity value,[1]; [8],33.7 nmol/min/mL
same,absorbance change per minute (sensitivity),[1]; [8],14.4 ΔmAbs/min
same,Lp-PLA2 activity value,[1]; [9],14.5 nmol/min/mL
same,absorbance change per minute (sensitivity),[1]; [9],6.2 ΔmAbs/min
same,Lp-PLA2 activity value,[1]; [10],14.1 nmol/min/mL
same,absorbance change per minute (sensitivity),[1]; [10],6.0 ΔmAbs/min
"O=S(=O)(O)CCN1CCN(CCO)CC1 [HEPES, 2-[4-(2-Hydroxyethyl)-1-piperazinyl]ethanesulfonic acid]",Lp-PLA2 activity value,[1]; [11],76.4 nmol/min/mL
same,absorbance change per minute (sensitivity),[1]; [11],32.6 ΔmAbs/min
same,Lp-PLA2 activity value,[1]; [12],36.5 nmol/min/mL
same,absorbance change per minute (sensitivity),[1]; [12],15.6 ΔmAbs/min
"O=S(=O)(O)CCCN1CCOCC1 [MOPS, 3-Morpholinopropanesulfonic acid]",Lp-PLA2 activity value,[1]; [11],81.3 nmol/min/mL
same,absorbance change per minute (sensitivity),[1]; [11],34.7 ΔmAbs/min
same,Lp-PLA2 activity value,[1]; [12],39.4 nmol/min/mL
same,absorbance change per minute (sensitivity),[1]; [12],16.8 ΔmAbs/min
"O=S(=O)(O)CCN1CCN(CCS(=O)(=O)O)CC1 [PIPES, Piperazine-1,4-bis(2-ethanesulfonic acid)]",Lp-PLA2 activity value,[1]; [11],89.5 nmol/min/mL
same,absorbance change per minute (sensitivity),[1]; [11],38.2 ΔmAbs/min
same,Lp-PLA2 activity value,[1]; [12],43.1 nmol/min/mL
same,absorbance change per minute (sensitivity),[1]; [12],18.4 ΔmAbs/min
"O=P(O)(O)O [Pi-K, potassium phosphate]",Lp-PLA2 activity value,[1]; [11],84.3 nmol/min/mL
same,absorbance change per minute (sensitivity),[1]; [11],36.0 ΔmAbs/min
same,Lp-PLA2 activity value,[1]; [12],37.5 nmol/min/mL
same,absorbance change per minute (sensitivity),[1]; [12],16.0 ΔmAbs/min
"O=S(=O)(O)CCNC(CO)(CO)CO [TES, N-tris(hydroxymethyl)methyl-2-aminoethanesulfonic acid]",Lp-PLA2 activity value,[1]; [11],75.7 nmol/min/mL
same,absorbance change per minute (sensitivity),[1]; [11],32.3 ΔmAbs/min
same,Lp-PLA2 activity value,[1]; [12],37.5 nmol/min/mL
same,absorbance change per minute (sensitivity),[1]; [12],16.0 ΔmAbs/min
"Cc1cccc(N(CCCCS(=O)(=O)[O-])CCCCS(=O)(=O)[O-])c1.[Na+].[Na+] [TODB, N,N-bis(4-sulfobutyl)-3-methylaniline, disodium salt]",Lp-PLA2 activity value,[1]; [8],71.0 nmol/min/mL
same,absorbance change per minute (sensitivity),[1]; [8],30.3 ΔmAbs/min
same,Lp-PLA2 activity value,[1]; [9],30.0 nmol/min/mL
same,absorbance change per minute (sensitivity),[1]; [9],12.8 ΔmAbs/min
same,Lp-PLA2 activity value,[1]; [10],31.9 nmol/min/mL
same,absorbance change per minute (sensitivity),[1]; [10],13.6 ΔmAbs/min
same,values for absorbance change (sensitivity) compared with DAOS,[1]; Example 10,about twice those obtained with DAOS
"CCN(CC(O)CS(=O)(=O)[O-])c1cccc(C)c1.O.O.[Na+] (centres unmarked) [TOOS, N-ethyl-N-(2-hydroxy-3-sulfopropyl)-3-methylaniline, sodium salt, dihydrate]",Lp-PLA2 activity value,[1]; [8],69.3 nmol/min/mL
same,absorbance change per minute (sensitivity),[1]; [8],29.6 ΔmAbs/min
same,Lp-PLA2 activity value,[1]; [9],28.1 nmol/min/mL
same,absorbance change per minute (sensitivity),[1]; [9],12.0 ΔmAbs/min
same,Lp-PLA2 activity value,[1]; [10],30.9 nmol/min/mL
same,absorbance change per minute (sensitivity),[1]; [10],13.2 ΔmAbs/min
same,values for absorbance change (sensitivity) compared with DAOS,[1]; Example 10,about twice those obtained with DAOS
"NC(CO)(CO)CO [Tris, 2-Amino-2-hydroxymethyl-1,3-propanediol]",Lp-PLA2 activity value,[1]; [11],99.1 nmol/min/mL
same,absorbance change per minute (sensitivity),[1]; [11],42.3 ΔmAbs/min
same,Lp-PLA2 activity value,[1]; [12],44.7 nmol/min/mL
same,absorbance change per minute (sensitivity),[1]; [12],19.1 ΔmAbs/min
